Reference: US11304949B2, “Treatment of hidradenitis suppurativa using JAK inhibitors” (Incyte Corporation, priority 2018, dated 2022)
Values belong to the compound of their own block, whether it stands above or below them.

Columns and labels:
[1] = test system: human JAK1 (a.a. 837-1142); assay: In vitro JAK kinase assay (HTRF), JAK1; format: biochemical; conditions: IC50 ratio at 1 mM ATP
[2] = target: human JAK1 (a.a. 837-1142) (Homo sapiens, UniProt P23458); assay: In vitro JAK kinase assay (HTRF), JAK1; format: biochemical; conditions: 1 mM ATP
[3] = test system: Transformed human keratinocyte (HaCaT) cells stimulated with TNFα and IFNγ; assay: JAK inhibitors in TNFα/IFNγ stimulated keratinocytes, gene expression (QuantiGene Plex); conditions: 24 hours, normalized to HPRT1, mean ± standard error
[4] = test system: Transformed human keratinocyte (HaCaT) cells stimulated with TNFα and IFNγ; assay: JAK inhibitors in TNFα/IFNγ stimulated keratinocytes, inflammatory mediators in media (ProCarta Multiplex Immunoassay); conditions: mean ± 1 standard error
[5] = TNFα (25 ng/mL) and IFNγ (25 ng/mL), drug 25 nM
[6] = TNFα (25 ng/mL) and IFNγ (25 ng/mL), drug 50 nM
[7] = TNFα (25 ng/mL) and IFNγ (25 ng/mL), drug 100 nM
[8] = TNFα (25 ng/mL) and IFNγ (25 ng/mL), drug 200 nM
[9] = TNFα (25 ng/mL) and IFNγ (25 ng/mL) stimulation, drug 25 nM
[10] = TNFα (25 ng/mL) and IFNγ (25 ng/mL) stimulation, drug 50 nM
[11] = TNFα (25 ng/mL) and IFNγ (25 ng/mL) stimulation, drug 100 nM
[12] = TNFα (25 ng/mL) and IFNγ (25 ng/mL) stimulation, drug 200 nM

SMILES: N#CCC1(n2cc(-c3ncnc4[nH]ccc34)cn2)CN(C2CCN(C(=O)Nc3ccc(F)cc3C(F)(F)F)CC2)C1 [Compound 2, 4-{3-(Cyanomethyl)-3-[4-(7H-pyrrolo[2,3-d]pyrimidin-4-yl)-1H-pyrazol-1-yl]azetidin-1-yl}-N-[4-fluoro-2-(trifluoromethyl)phenyl]piperidine-1-carboxamide]
JAK2/JAK1 [1]: >10 | IC50 [2]: < 10 nM

SMILES: CCNCc1cc(O[C@H]2CC[C@@H](N3CC(CC#N)(n4cc(-c5ncnc6[nH]ccc56)cn4)C3)CC2)nc(C(F)(F)F)c1 [Compound 19, {1-(cis-4-{[4-[(ethylamino)methyl]-6-(trifluoromethyl)pyridin-2-yl]oxy}cyclohexyl)-3-[4-(7H-pyrrolo[2,3-d]pyrimidin-4-yl)-1H-pyrazol-1-yl]azetidin-3-yl}acetonitrile]
JAK2/JAK1 [1]: >10 | IC50 [2]: < 10 nM

SMILES: N#CCC1(n2cc(-c3ncnc4[nH]ccc34)cn2)CN([C@H]2CC[C@@H](Oc3cc(CN4CC[C@@H](O)C4)cc(C(F)(F)F)n3)CC2)C1 [Compound 21, {1-(cis-4-{[4-{[(3R)-3-hydroxypyrrolidin-1-yl]methyl}-6-(trifluoromethyl)pyridin-2-yl]oxy}cyclohexyl)-3-[4-(7H-pyrrolo[2,3-d]pyrimidin-4-yl)-1H-pyrazol-1-yl]azetidin-3-yl}acetonitrile]
JAK2/JAK1 [1]: >10 | IC50 [2]: < 10 nM

SMILES: N#CCC1(n2cc(-c3ncnc4[nH]ccc34)cn2)CN(C2CCN(C(=O)c3ccnc(C(F)(F)F)n3)CC2)C1 [Compound 3, [3-[4-(7H-pyrrolo[2,3-d]pyrimidin-4-yl)-1H-pyrazol-1-yl]-1-(1-{[2-(trifluoromethyl)pyrimidin-4-yl]carbonyl}piperidin-4-yl)azetidin-3-yl]acetonitrile]
JAK2/JAK1 [1]: >10 | IC50 [2]: < 10 nM

SMILES: N#CC[C@]1(n2cc(-c3ncnc4[nH]ccc34)cn2)C[C@H](N2CCC(Oc3cc(CN4CC(O)C4)cc(C(F)(F)F)n3)CC2)C1 [Compound 11, {trans-3-(4-{[4-[(3-hydroxyazetidin-1-yl)methyl]-6-(trifluoromethyl)pyridin-2-yl]oxy}piperidin-1-yl)-1-[4-(7H-pyrrolo[2,3-d]pyrimidin-4-yl)-1H-pyrazol-1-yl]cyclobutyl}acetonitrile]
JAK2/JAK1 [1]: >10 | IC50 [2]: < 10 nM

Continued, in another order:

JAK2/JAK1 [1]: >10 | IC50 [2]: < 10 nM
SMILES: N#CCC1(n2cc(-c3ncnc4[nH]ccc34)cn2)CN(C2CCN(C(=O)c3ccnc(C(F)(F)F)c3F)CC2)C1 [Compound 1, {1-{1-[3-Fluoro-2-(trifluoromethyl)isonicotinoyl]piperidin-4-yl}-3-[4-(7H-pyrrolo[2,3-d]pyrimidin-4-yl)-1H-pyrazol-1-yl]azetidin-3-yl}acetonitrile]
IL-1α MFI [3, 5]: 1288.02 ± 20 | IL-6 MFI [3, 5]: 130.24 ± 3.84 | JAK1 MFI [3, 5]: 216.23 ± 6.41 | JAK2 MFI [3, 5]: 109.39 ± 2.8 | JAK3 MFI [3, 5]: 0.84 ± 0.12 | STAT1 MFI [3, 5]: 2868.69 ± 202.69 | STAT3 MFI [3, 5]: 1466.73 ± 66.75 | STAT4 MFI [3, 5]: 6.00 ± 0.46 | STAT5A MFI [3, 5]: 23.69 ± 1.63 | STAT6 MFI [3, 5]: 1004.82 ± 23.76 | TYK2 MFI [3, 5]: 292.92 ± 7.99 | IL-1α MFI [3, 6]: 1258.76 ± 23.63 | IL-6 MFI [3, 6]: 122.69 ± 4.36 | JAK1 MFI [3, 6]: 210.42 ± 10.89 | JAK2 MFI [3, 6]: 101 ± 2.26 | JAK3 MFI [3, 6]: 0.83 ± 0.15 | STAT1 MFI [3, 6]: 2862.58 ± 163.98 | STAT3 MFI [3, 6]: 1437.28 ± 60.69 | STAT4 MFI [3, 6]: 6.22 ± 0.42 | STAT5A MFI [3, 6]: 22.32 ± 2.16 | STAT6 MFI [3, 6]: 990.05 ± 21.06 | TYK2 MFI [3, 6]: 287.31 ± 11.08 | IL-1α MFI [3, 7]: 1162.35 ± 23.34 | IL-6 MFI [3, 7]: 111.07 ± 4.74 | JAK1 MFI [3, 7]: 205.03 ± 11.49 | JAK2 MFI [3, 7]: 94.5 ± 2.65 | JAK3 MFI [3, 7]: 0.92 ± 0.13 | STAT1 MFI [3, 7]: 2790.32 ± 176.4 | STAT3 MFI [3, 7]: 1373.34 ± 55.51 | STAT4 MFI [3, 7]: 6.21 ± 0.48 | STAT5A MFI [3, 7]: 20.87 ± 2.1 | STAT6 MFI [3, 7]: 987.64 ± 15.75 | TYK2 MFI [3, 7]: 284.15 ± 9.62 | IL-1α MFI [3, 8]: 1126.94 ± 26.22 | IL-6 MFI [3, 8]: 93.03 ± 3.25 | JAK1 MFI [3, 8]: 195.97 ± 10.45 | JAK2 MFI [3, 8]: 89.16 ± 3.43 | JAK3 MFI [3, 8]: 0.79 ± 0.15 | STAT1 MFI [3, 8]: 2857.2 ± 174.57 | STAT3 MFI [3, 8]: 1400.77 ± 58.44 | STAT4 MFI [3, 8]: 6.27 ± 0.56 | STAT5A MFI [3, 8]: 19.2 ± 1.94 | STAT6 MFI [3, 8]: 985.17 ± 29.31 | TYK2 MFI [3, 8]: 277.52 ± 8.67 | IL-1α MFI ([3]; no stimulation, drug 200 nM): 85.16 ± 6.50 | IL-6 MFI ([3]; no stimulation, drug 200 nM): 4.97 ± 0.36 | JAK1 MFI ([3]; no stimulation, drug 200 nM): 171.53 ± 9.49 | JAK2 MFI ([3]; no stimulation, drug 200 nM): 25.21 ± 1.12 | JAK3 MFI ([3]; no stimulation, drug 200 nM): 0.63 ± 0.10 | STAT1 MFI ([3]; no stimulation, drug 200 nM): 535.07 ± 22.13 | STAT3 MFI ([3]; no stimulation, drug 200 nM): 732.19 ± 23.03 | STAT4 MFI ([3]; no stimulation, drug 200 nM): 4.01 ± 0.45 | STAT5A MFI ([3]; no stimulation, drug 200 nM): 1.44 ± 0.41 | STAT6 MFI ([3]; no stimulation, drug 200 nM): 740.11 ± 34.98 | TYK2 MFI ([3]; no stimulation, drug 200 nM): 217.28 ± 10.09 | IL-1α concentration in media [4, 9]: 7.34 ± 0.31 pg/mL | IL-6 concentration in media [4, 9]: 749.64 ± 32.94 pg/mL | IP-10/CXCL10 concentration in media [4, 9]: 4068.98 ± 507.12 pg/mL | MIP1α concentration in media [4, 9]: 103.81 ± 3.29 pg/mL | RANTES concentration in media [4, 9]: 203.77 ± 12.55 pg/mL | IL-1α concentration in media [4, 10]: 7.06 ± 0.37 pg/mL | IL-6 concentration in media [4, 10]: 674.21 ± 27.15 pg/mL | IP-10/CXCL10 concentration in media [4, 10]: 3872.74 ± 295.01 pg/mL | MIP1α concentration in media [4, 10]: 100.64 ± 4.66 pg/mL | RANTES concentration in media [4, 10]: 198.35 ± 15.1 pg/mL | IL-1α concentration in media [4, 11]: 7 ± 0.41 pg/mL | IL-6 concentration in media [4, 11]: 643.8 ± 27.14 pg/mL | IP-10/CXCL10 concentration in media [4, 11]: 4050.7 ± 471.31 pg/mL | MIP1α concentration in media [4, 11]: 91.52 ± 5.05 pg/mL | RANTES concentration in media [4, 11]: 194.21 ± 12.67 pg/mL | IL-1α concentration in media [4, 12]: 6.16 ± 0.35 pg/mL | IL-6 concentration in media [4, 12]: 568.73 ± 24.74 pg/mL | IP-10/CXCL10 concentration in media [4, 12]: 4071.78 ± 411.22 pg/mL | MIP1α concentration in media [4, 12]: 83.1 ± 2.77 pg/mL | RANTES concentration in media [4, 12]: 183.18 ± 13.92 pg/mL | IL-1α concentration in media ([4]; no stimulation, drug 200 nM): 0.29 ± 0.03 pg/mL | IL-6 concentration in media ([4]; no stimulation, drug 200 nM): 28.49 ± 2.89 pg/mL | IP-10/CXCL10 concentration in media ([4]; no stimulation, drug 200 nM): 19.83 ± 0.40 pg/mL | MIP1α concentration in media ([4]; no stimulation, drug 200 nM): 2.75 ± 0.26 pg/mL | RANTES concentration in media ([4]; no stimulation, drug 200 nM): 8.42 ± 0.51 pg/mL

JAK2/JAK1 [1]: >10 | IC50 [2]: < 10 nM
SMILES: N#CC[C@]1(n2cc(-c3ncnc4[nH]ccc34)cn2)C[C@H](N2CCN(C(=O)c3ccnc(C(F)(F)F)n3)CC2)C1 [Compound 10, [trans-1-[4-(7H-pyrrolo[2,3-d]pyrimidin-4-yl)-1H-pyrazol-1-yl]-3-(4-{[2-(trifluoromethyl)pyrimidin-4-yl]carbonyl}piperazin-1-yl)cyclobutyl]acetonitrile]

JAK2/JAK1 [1]: >10 | IC50 [2]: < 10 nM
SMILES: N#CCC(CN1CCN(C(=O)c2ccc(C#N)cc2F)CC1)n1cc(-c2ncnc3[nH]ccc23)cn1 (centres unmarked) [Compound 8, 4-[(4-{3-cyano-2-[4-(7H-pyrrolo[2,3-d]pyrimidin-4-yl)-1H-pyrazol-1-yl]propyl}piperazin-1-yl)carbonyl]-3-fluorobenzonitrile]

JAK2/JAK1 [1]: >10 | IC50 [2]: < 10 nM
SMILES: N#CCC(CN1CCN(C(=O)c2ccc(C#N)cc2F)CC1)n1ccc(-c2ncnc3[nH]ccc23)c1 (centres unmarked) [Compound 9, 4-[(4-{3-cyano-2-[3-(7H-pyrrolo[2,3-d]pyrimidin-4-yl)-1H-pyrrol-1-yl]propyl}piperazin-1-yl)carbonyl]-3-fluorobenzonitrile]
